Among the test systems are SF-295 CNS; CAKI-1 renal; SK-MEL-5 melanoma; OVCAR-4 ovarian; SK-MEL-28 melanoma; MALME-3M melanoma; RPMI-8226 leukemia; UACC-257 melanoma.
Holding throughout (assay): inhibition of tumour cell growth, NCI panel, 48 h

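All cell lines were grown in 96-well plates and treated with compound for 48 hours. The concentration for 50% growth inhibition is given as GI50. At the TGI there is no net growth.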 A value given as a limit tells only on which side of the number the result lay.

Take `CCOC(=O)/C=C1\Nc2ccccc2C(c2ccccc2)=NC1OC(C)=O` (configuration not stated): the TGI in the test on SF-295 CNS, in the test with CAKI-1 renal, in the test with SK-MEL-5 melanoma, in the test on OVCAR-4 ovarian, in the test with SK-MEL-28 melanoma and in the test on MALME-3M melanoma was over 100 µM in each case. Moreover, the TGI with RPMI-8226 leukemia and in the test on UACC-257 melanoma was over 100 µM in each case.

Take `CC1=NN(C(=O)CC(=O)Nc2cccc(Cl)c2)C(=O)C1N=Nc1ccc(S(N)(=O)=O)cc1` (configuration not stated): the TGI with SF-295 CNS, with CAKI-1 renal, with SK-MEL-5 melanoma, with OVCAR-4 ovarian, with SK-MEL-28 melanoma and in the test on MALME-3M melanoma was over 100 µM in each case. For the same molecule, the TGI in the test with RPMI-8226 leukemia and with UACC-257 melanoma was over 100 µM each time.

For the molecule `COC(=O)/C(=N\NC(=O)c1ccccc1O)C(C#N)c1ccc(Cl)cc1` (configuration not stated), the TGI in the test with SF-295 CNS, with SK-MEL-5 melanoma, with OVCAR-4 ovarian, in the test on SK-MEL-28 melanoma, in the test with MALME-3M melanoma and in the test with UACC-257 melanoma was over 100 µM each time.

With `C/C(=N\NS(=O)(=O)c1ccc(C)cc1)c1ccc[n+]([O-])n1`, the TGI was over 100 µM in the test with SF-295 CNS; 85.3 µM in the test with CAKI-1 renal; over 100 µM with SK-MEL-5 melanoma; over 100 µM in the test with OVCAR-4 ovarian; over 100 µM in the test on SK-MEL-28 melanoma; over 100 µM with RPMI-8226 leukemia. For the same molecule, the TGI with UACC-257 melanoma was over 100 µM.

As to `COc1cc2ccn3c4cc(OC)c(OC)cc4cc3c2cc1OC`, the TGI in the test on SF-295 CNS, in the test with CAKI-1 renal, in the test on OVCAR-4 ovarian, in the test on SK-MEL-28 melanoma, with MALME-3M melanoma and with RPMI-8226 leukemia was over 100 µM in each case. In the test with UACC-257 melanoma, this molecule came in with a TGI of over 100 µM.

For `c1ccc2c(c1)CCCc1cc3ccccc3nc1-2`, the TGI in the test on SF-295 CNS, in the test on CAKI-1 renal, with SK-MEL-5 melanoma, with OVCAR-4 ovarian, in the test with SK-MEL-28 melanoma and with MALME-3M melanoma was over 100 µM each time. The TGI with RPMI-8226 leukemia was 99.2 µM; with UACC-257 melanoma, over 100 µM.

On to `N#Cc1c2c(c(N=[N+]=[N-])n3c1nc1ccccc13)CCCC2`, for which the TGI came out at 4.94 µM with SF-295 CNS; 6.39 µM in the test with CAKI-1 renal; 32.3 µM in the test with SK-MEL-5 melanoma; 5.33 µM in the test on OVCAR-4 ovarian; 14 µM in the test on SK-MEL-28 melanoma; 5.96 µM with MALME-3M melanoma. Also, the TGI was found to be 6.85 µM with RPMI-8226 leukemia and 3.12 µM in the test on UACC-257 melanoma.

For the molecule `O=c1c2ccccc2nc(-c2ccccc2)n1NCC1(O)OCC(O)C(O)C1O` (configuration not stated), the TGI in the test on SF-295 CNS, with CAKI-1 renal, with SK-MEL-5 melanoma, with OVCAR-4 ovarian, in the test on SK-MEL-28 melanoma and with MALME-3M melanoma was over 100 µM each time. The TGI in the test on RPMI-8226 leukemia and in the test with UACC-257 melanoma was over 100 µM in each case.

With `Brc1ccc2c(c1)C1(c3cc(Br)ccc3-2)c2cc(Br)ccc2-c2ccc(Br)cc21`, the TGI in the test on SF-295 CNS, in the test with CAKI-1 renal, in the test with OVCAR-4 ovarian, in the test with SK-MEL-28 melanoma, with MALME-3M melanoma and with RPMI-8226 leukemia was over 100 µM throughout. The molecule also had a TGI in the test with UACC-257 melanoma of over 100 µM.

As to `Cc1cc(N(CCC#N)S(=O)(=O)c2ccccc2)ccc1C=O`, the TGI in the test with SF-295 CNS, with CAKI-1 renal, with SK-MEL-5 melanoma, in the test on OVCAR-4 ovarian, in the test with SK-MEL-28 melanoma and with MALME-3M melanoma was over 100 µM in each case. Also, the TGI in the test on RPMI-8226 leukemia and in the test on UACC-257 melanoma was over 100 µM each time.

Consider `O=C(CCCCCCCCCCc1ccccc1)c1c(O)cccc1O`, for which the TGI in the test with SF-295 CNS is 47 µM; in the test with CAKI-1 renal, 74.8 µM; in the test with SK-MEL-5 melanoma, 30.4 µM; in the test with OVCAR-4 ovarian it was 57.5 µM; in the test on SK-MEL-28 melanoma, 40.1 µM; in the test on MALME-3M melanoma, 34.3 µM. The TGI is over 100 µM in the test on RPMI-8226 leukemia and 38.8 µM in the test with UACC-257 melanoma.

As for `CC(C)c1ccc(/C=C(\NC(=O)c2ccccc2)c2nc3ccccc3[nH]2)cc1`, the TGI with CAKI-1 renal is over 100 µM; with SK-MEL-5 melanoma it was 48.7 µM; in the test with OVCAR-4 ovarian it was over 100 µM; in the test with MALME-3M melanoma, over 100 µM; in the test with RPMI-8226 leukemia, 45.2 µM; with UACC-257 melanoma it was over 100 µM.

Consider `CC(=O)NC1C(OCc2ccccc2)OC(COC(=O)CCCCCCCCCCNC(=O)c2cccc3c(=O)c4ccccc4[nH]c23)C(O)C1OC(C)C(=O)NC(C)C(=O)NC(CCC(N)=O)C(N)=O` (configuration not stated), for which the TGI in the test with SF-295 CNS, with CAKI-1 renal, in the test on SK-MEL-5 melanoma, with OVCAR-4 ovarian, in the test with SK-MEL-28 melanoma and in the test on RPMI-8226 leukemia was over 100 µM throughout. Also, in the test with UACC-257 melanoma, the TGI is over 100 µM.

In the case of `S=C(Nc1ccccc1)Nc1[nH]c(=S)sc1-c1nc2ccccc2[nH]1`, the TGI in the test on SF-295 CNS was over 100 µM; with CAKI-1 renal, over 100 µM; with SK-MEL-5 melanoma, over 100 µM; in the test with OVCAR-4 ovarian it was 81.2 µM; in the test on SK-MEL-28 melanoma, over 100 µM; in the test with MALME-3M melanoma, over 100 µM. In addition, the TGI in the test with RPMI-8226 leukemia and with UACC-257 melanoma was over 100 µM in each case.

Consider `CC(C)OP(=O)(OC(C)C)C(N(C)C)P(=O)(OC(C)C)OC(C)C.[Cl][Sn]([Cl])([Cl])[c]1ccccc1`, for which the GI50 was 4.15 µM in the test with SF-295 CNS; 3.7 µM in the test with CAKI-1 renal; 1650 nM in the test with SK-MEL-5 melanoma; 5.01 µM in the test with SK-MEL-28 melanoma; 2820 nM with MALME-3M melanoma; 1840 nM in the test with RPMI-8226 leukemia. Further, in the test with UACC-257 melanoma, the GI50 is 2790 nM. For the same molecule, the TGI with SF-295 CNS was 9.98 µM; in the test with CAKI-1 renal it was over 100 µM; in the test on SK-MEL-5 melanoma it was 3.16 µM; with SK-MEL-28 melanoma it was 75.4 µM; in the test with MALME-3M melanoma, 8.2 µM; in the test on RPMI-8226 leukemia, 5 µM. Besides, in the test with UACC-257 melanoma, the TGI was 8.95 µM.

On to `CC1CCC(O)C(C(O)CC2CC(=O)N(C)C(=O)C2)C1` (configuration not stated), for which the TGI in the test with SF-295 CNS, with CAKI-1 renal, in the test with OVCAR-4 ovarian, in the test on SK-MEL-28 melanoma, in the test with MALME-3M melanoma and with RPMI-8226 leukemia was over 100 µM throughout. Further, the TGI with UACC-257 melanoma is over 100 µM.

As for `Cc1nnc2n1N=C(CC(=O)c1ccc(O)cc1O)CN2N`, the TGI with SF-295 CNS, in the test with CAKI-1 renal, in the test on SK-MEL-5 melanoma, in the test with OVCAR-4 ovarian, in the test with SK-MEL-28 melanoma and with MALME-3M melanoma was over 100 µM each time. The molecule also showed a TGI in the test on UACC-257 melanoma of over 100 µM.
